In US7384927B2, “Alkylated porphyrins as pesticides acting both in the presence and absence of light” (priority 2003, dated 2008):

Experiments:
Assay type in all cases: in vivo
[1] = test system: Bactrocera oleae (olive fly); experiment: Release of alkylated porphyrin from flies after feeding with bait interrupted; details: B. oleae, 1.25 μM porphyrin in the bait
Description: (§1) An appropriate number of flies (50 flies per each experiment) was caged in 115×55×70 mm Plexiglas cages with several holes (ø=0.5 mm) and starved for 36 h. Then, depending on the protocol to be adopted for each specific experiment, the flies were fed with the bait (10% sucrose and 1% autolysed yeast in neutral aqueous solution), which was either porphyrin-free or added with a predetermined concentration of the porphyrin. These flies were then used in the various experimental sessions.
(§2) At predetermined times, the flies were sacrificed by freezing; the dead flies were then homogenized with a Polytron in 10 ml of a 2% aqueous solution of sodium dodecylsulphate (SDS). The suspension was centrifuged for 10 min at 2,000 rpm, the pellet was discarded and known aliquots of the supernatant were diluted by means of a chloroform/methanol binary mixture (1/2, v/v). The porphyrin concentration was measured by reading the fluorescence emitted at wavelengths above 630 nm and interpolating the emission intensity with a calibration plot obtained with known amounts of the porphyrin. The results were expressed as nanomoles of porphyrin recovered per fly.

[2] = test system: Ceratitis capitata (fruit fly); experiment: as above; details: C. capitata, 1.25 μM porphyrin in the bait
Description: as §1, §2

[3] = test system: Stomoxis calcitrans (stable fly); experiment: as above; details: S. calcitrans, 1.25 μM porphyrin in the bait
Description: as §1, §2

Ceratitis capitata flies [4] = experiment: Photoinsecticidal action: fly survival after bait and visible light irradiation (artificial lamp); details: for Survival (% of control untreated flies): survival 10 h after irradiation
Description: (§3) Porphyrins: • a) meso[tri(N-methyl-pyridyl), mono(N-dodecyl-pyridyl)]porphine (abbr.: C12) • b) meso[tri(N-methyl-pyridyl), mono(N-tetradecyl-pyridyl)]porphine (abbr.: C14) • c) meso[tri(N-methyl-pyridyl), mono(N-octadecyl-pyridyl)]porphine (abbr.: C18) Bait: Aqueous solution containing 10% sucrose and 1% autolysed yeast Flies: • a) Ceratitis capitata (fruit fly) age: 1 week; weight: 5-6 mg • b) Bactrocera oleae (olive fly) age: 10 days; weight: 4-4.5 mg • c) Stomoxis calcitrans (stable fly) age: 10 days; weight: 12 mg Irradiation: • a) High pressure halogen lamp, equipped with infrared and UV filters, emission 360-850 nm, operated at intensities in the 760-2,000 μE s^−1m^−2 range • b) Sunlight, mid June at Padua latitude, average intensity of […] μE s^−1m^−2 with minimum and maximum values of 950 and, respectively, 1,380 μE s^−1m^−2
The irradiations were performed for 1 h, then the flies were kept in dim light for monitoring the survival. Control flies were irradiated under identical conditions after feeding with a porphyrin-free bait.
The irradiations were performed for 1 h at a fluence-rate of 1220 μE s^−1m^−2. The survival was evaluated 10 h after the end of irradiation. […] The porphyrins are abbreviated as following: HP: haematoporphyrin; C1: meso-tetra(N-methyl-pyridyl)porphine.
The survival was evaluated 10 h after the end of irradiation.
An appropriate number of flies (50 flies per each experiment) was caged in 115×55×70 mm Plexiglas cages with several holes (ø=0.5 mm) and starved for 36 h. Then, depending on the protocol to be adopted for each specific experiment, the flies were fed with the bait (10% sucrose and 1% autolysed yeast in neutral aqueous solution), which was either porphyrin-free or added with a predetermined concentration of the porphyrin. These flies were then used in the various experimental sessions. […]

[5] = test system: Bactrocera oleae (olive fly); experiment: Uptake of alkylated porphyrins by flies fed porphyrin-containing bait; details: B. oleae
Description: as §3, §1, §2

[6] = test system: Ceratitis capitata (fruit fly); experiment: as above; details: C. capitata
Description: as §3, §1, §2

[7] = test system: Stomoxis calcitrans (stable fly); experiment: as above; details: S. calcitrans
Description: as §3, §1, §2

Ceratitis capitata flies [8] = experiment: Photoinsecticidal action: fly survival after bait and sunlight irradiation; details: 3 μM in bait, 12 h after feeding, survival 1 h after irradiation
Description: as §3
The survival was evaluated 1 h after the end of irradiation.
as §1

[9] = test system: Stomoxis calcitrans flies; experiment: Insecticidal action in the dark: fly survival after porphyrin bait; details: fed 24 h, survival 12 h after change to porphyrin-free bait
Description: (§4) These flies were then used in the various experimental sessions. […] The number of survivors was evaluated 12 h after switching from administration of a porphyrin-containing bait to a porphyrin-free bait. In none of the experiments was mortality or any apparent toxic effect observed in control flies (flies not fed with porphyrin, see survival at 0 μM porphyrin concentration).

Bactrocera oleae flies = experiment: as above; details: fed 24 h, survival 12 h after change to porphyrin-free bait
Description: as §4

[10] = exposure time to bait 3 h, porphyrin in bait 1.24 μM
[11] = exposure time to bait 12 h, porphyrin in bait 1.24 μM
[12] = exposure time to bait 24 h, porphyrin in bait 1.24 μM
[13] = porphyrin concentration in bait 0.75 (μmoles), feeding 24 h
[14] = porphyrin concentration in bait 1.25 (μmoles), feeding 24 h
[15] = porphyrin concentration in bait 2.10 (μmoles), feeding 24 h
[16] = porphyrin concentration in bait 3.50 (μmoles), feeding 24 h
[17] = porphyrin concentration in bait 6.00 (μmoles), feeding 24 h

Compound: CCCCCCCCCCCCCCCCCC[n+]1ccc(-c2c3nc(c(-c4cc[n+](C)cc4)c4ccc([nH]4)c(-c4cc[n+](C)cc4)c4nc(c(-c5cc[n+](C)cc5)c5ccc2[nH]5)C=C4)C=C3)cc1 [C18, meso[tri(N-methyl-pyridyl), mono(N-octadecyl-pyridyl)]porphine]
- Recoveries (nmoles of porphyrin per fly), release ([1]; 12 h after feeding interrupted): 3.8 nmoles of porphyrin per fly
- Recoveries (nmoles of porphyrin per fly), release ([1]; 24 h after feeding interrupted): 1.7 nmoles of porphyrin per fly
- Recoveries (nmoles of porphyrin per fly), release ([1]; 48 h after feeding interrupted): 0.6 nmoles of porphyrin per fly
- Recoveries (nmoles of porphyrin per fly), release ([2]; 12 h after feeding interrupted): 3.7 nmoles of porphyrin per fly
- Recoveries (nmoles of porphyrin per fly), release ([2]; 24 h after feeding interrupted): 2.2 nmoles of porphyrin per fly
- Recoveries (nmoles of porphyrin per fly), release ([2]; 48 h after feeding interrupted): 1.0 nmoles of porphyrin per fly
- Recoveries (nmoles of porphyrin per fly), release ([3]; 12 h after feeding interrupted): 4.2 nmoles of porphyrin per fly
- Recoveries (nmoles of porphyrin per fly), release ([3]; 24 h after feeding interrupted): 2.3 nmoles of porphyrin per fly
- Recoveries (nmoles of porphyrin per fly), release ([3]; 48 h after feeding interrupted): 1.1 nmoles of porphyrin per fly
- Survival (% of control untreated flies) (Ceratitis capitata flies [4]; 3 μM in bait 24 h, time interval feeding-irradiation 0 h, irradiation 1 h at 1220 μE s^−1m^−2): 45 % of control untreated flies
- Survival (% of control untreated flies) (Ceratitis capitata flies [4]; 3 μM in bait 24 h, time interval feeding-irradiation 12 h, irradiation 1 h at 1220 μE s^−1m^−2): 52 % of control untreated flies
- Survival (% of control untreated flies) (Ceratitis capitata flies [4]; 3 μM in bait 24 h, time interval feeding-irradiation 24 h, irradiation 1 h at 1220 μE s^−1m^−2): 64 % of control untreated flies
- Survival (% of control untreated flies) (Ceratitis capitata flies [4]; 3 μM in bait 24 h, time interval feeding-irradiation 48 h, irradiation 1 h at 1220 μE s^−1m^−2): 70 % of control untreated flies
- Survival (% of control untreated flies) (Ceratitis capitata flies [4]; 3 μM in bait, fluence-rate 760 μE s^−1m^−2, irradiated 24 h after feeding (title)): 52 % of control untreated flies
- Survival (% of control untreated flies) (Ceratitis capitata flies [4]; 3 μM in bait, fluence-rate 1220 μE s^−1m^−2, irradiated 24 h after feeding (title)): 45 % of control untreated flies
- Survival (% of control untreated flies) (Ceratitis capitata flies [4]; 3 μM in bait, fluence-rate 1500 μE s^−1m^−2, irradiated 24 h after feeding (title)): 40 % of control untreated flies
- Survival (% of control untreated flies) (Ceratitis capitata flies [4]; 3 μM in bait, fluence-rate 2000 μE s^−1m^−2, irradiated 24 h after feeding (title)): 31 % of control untreated flies
- photoinsecticidal action compared among alkylated porphyrins (Ceratitis capitata flies [4]; irradiation with visible light or sunlight): drop in the overall photoactivity
- Recoveries (nmoles of porphyrin per fly) [5, 10]: 1.6 nmoles of porphyrin per fly
- Recoveries (nmoles of porphyrin per fly) [5, 11]: 7.7 nmoles of porphyrin per fly
- Recoveries (nmoles of porphyrin per fly) [5, 12]: 8.9 nmoles of porphyrin per fly
- Recoveries (nmoles of porphyrin per fly) [5, 13]: 5.2 nmoles of porphyrin per fly
- Recoveries (nmoles of porphyrin per fly) [5, 14]: 8.9 nmoles of porphyrin per fly
- Recoveries (nmoles of porphyrin per fly) [5, 15]: 9.7 nmoles of porphyrin per fly
- Recoveries (nmoles of porphyrin per fly) [5, 16]: 12.0 nmoles of porphyrin per fly
- Recoveries (nmoles of porphyrin per fly) [5, 17]: 12.9 nmoles of porphyrin per fly
- Recoveries (nmoles of porphyrin per fly) [6, 10]: 3.1 nmoles of porphyrin per fly
- Recoveries (nmoles of porphyrin per fly) [6, 11]: 6.6 nmoles of porphyrin per fly
- Recoveries (nmoles of porphyrin per fly) [6, 12]: 7.5 nmoles of porphyrin per fly
- Recoveries (nmoles of porphyrin per fly) [6, 13]: 3.6 nmoles of porphyrin per fly
- Recoveries (nmoles of porphyrin per fly) [6, 14]: 7.5 nmoles of porphyrin per fly
- Recoveries (nmoles of porphyrin per fly) [6, 15]: 8.3 nmoles of porphyrin per fly
- Recoveries (nmoles of porphyrin per fly) [6, 16]: 14.3 nmoles of porphyrin per fly
- Recoveries (nmoles of porphyrin per fly) [6, 17]: 16.2 nmoles of porphyrin per fly
- Recoveries (nmoles of porphyrin per fly) [7, 10]: 3.2 nmoles of porphyrin per fly
- Recoveries (nmoles of porphyrin per fly) [7, 11]: 8.9 nmoles of porphyrin per fly
- Recoveries (nmoles of porphyrin per fly) [7, 12]: 9.2 nmoles of porphyrin per fly
- Recoveries (nmoles of porphyrin per fly) [7, 13]: 5.9 nmoles of porphyrin per fly
- Recoveries (nmoles of porphyrin per fly) [7, 14]: 9.2 nmoles of porphyrin per fly
- Recoveries (nmoles of porphyrin per fly) [7, 15]: 12.8 nmoles of porphyrin per fly
- Recoveries (nmoles of porphyrin per fly) [7, 16]: 15.7 nmoles of porphyrin per fly
- Recoveries (nmoles of porphyrin per fly) [7, 17]: 15.7 nmoles of porphyrin per fly
- Survival (% of control untreated flies) (Ceratitis capitata flies [8]; sunlight (average 1150 μE s^−1m^−2) 15 min): 80 % of control untreated flies
- Survival (% of control untreated flies) (Ceratitis capitata flies [8]; sunlight (average 1150 μE s^−1m^−2) 30 min): 75 % of control untreated flies
- Survival (% of control untreated flies) (Ceratitis capitata flies [8]; sunlight (average 1150 μE s^−1m^−2) 45 min): 61 % of control untreated flies
- Survival (% of control untreated flies) (Ceratitis capitata flies [8]; sunlight (average 1150 μE s^−1m^−2) 60 min): 31 % of control untreated flies
- Survival (% of control untreated flies) ([9]; 0.75 μM in bait): 100 % of control untreated flies
- Survival (% of control untreated flies) ([9]; 1.25 μM in bait): 79 % of control untreated flies
- Survival (% of control untreated flies) ([9]; 2.10 μM in bait): 45 % of control untreated flies
- Survival (% of control untreated flies) ([9]; 3.00 μM in bait): 24 % of control untreated flies
- Survival (% of control untreated flies) ([9]; 5.00 μM in bait): 10 % of control untreated flies
- Survival (% of control untreated flies) ([9]; 8.10 μM in bait): 0 % of control untreated flies
- Survival (% of control untreated flies) (Bactrocera oleae flies; 0.75 μM in bait): 100 % of control untreated flies
- Survival (% of control untreated flies) (Bactrocera oleae flies; 1.25 μM in bait): 100 % of control untreated flies
- Survival (% of control untreated flies) (Bactrocera oleae flies; 2.10 μM in bait): 53 % of control untreated flies
- Survival (% of control untreated flies) (Bactrocera oleae flies; 3.00 μM in bait): 39 % of control untreated flies
- Survival (% of control untreated flies) (Bactrocera oleae flies; 5.00 μM in bait): 16 % of control untreated flies
- Survival (% of control untreated flies) (Bactrocera oleae flies; 8.10 μM in bait): 3 % of control untreated flies
